Series [1] relates to YAP-TEAD transcription complex. Briefly: YAP-TEAD reporter gene assay (dual luciferase, stably transfected 293T cells). The series is classed as cell-based. As to conditions: Homo sapiens, HEK-293T; 293T reporter cells, 24 h of drug treatment; read-out: IC50. How it is done: YAP-TEAD reporter gene The YAP-TEAD reporter gene assay was performed as follows. Firstly, the 8xGTIIC promoter sequence ([…] GTACTGTTGGTAAA) was constructed into a pGL4.20(luc2-Puro) plasmid, and the TK promoter ([…]) unrelated to the hippo pathway was constructed into a pGL4.78(hRlucCP/Hygro) plasmid, thereby constructing stably transfected 293T cells that can stably and continuously express the transcriptional activity of the YAP-TEAD transcription complex. After selection and identification of individual clones, the clones were grown and maintained in a DMEM medium containing 10% fetal bovine serum, penicillin-streptomycin solution, 1 µg/mL puromycin, and 150 µg/mL hygromycin. To perform reporter gene assays with the compounds to be tested, the well-growing cells described above were plated in a 384-well plate at a cell density of 3000 cells per well, with 90 µL per well. The periphery was sealed with an appropriate amount of PBS to prevent evaporation of water from the peripheral wells. Administration was performed on the next day after the cell plating. The test compounds were added at different concentration gradients, and three replicate wells were set for each concentration point. The compound concentration started at 5 µM and was diluted seven times with a 5-fold gradient. A corresponding negative control group treated with DMSO was also set up. After 24 h of drug treatment, the detection reagents were prepared first. The Dual-Lumi™ Firefly luciferase detection reagent and Dual-Lumi™ Renilla luciferase detection buffer were dissolved and brought to room temperature. […]. According to the amount of 100 µL of Dual-Lumi™ Renilla luciferase detection working solution required for the detection of each sample, an appropriate amount of Dual-Lumi™ Renilla luciferase detection working solution was prepared. […]. The cell culture plate was taken out and allowed to equilibrate at room temperature for 10 min (usually no more than 30 min). Then, 100 µL of Dual-Lumi™ Firefly luciferase detection reagent was added to each well of a 96-well plate (25 µL per well for the 384-well plate), and the mixture was mixed well. The mixture was then incubated at room temperature (about 25 °C) for 10 min to stabilize the luminescent signal, and then chemiluminescence was detected using a multimode microplate reader with a chemiluminescence detection function. Subsequently, the detection of Renilla luciferase began. Firstly, 100 µL of Dual-Lumi™ Renilla luciferase detection working solution was added to each well of a […] (25 µL per well for the 384-well plate), and the mixture was mixed well. The mixture was then incubated at room temperature (about 25 °C) for 10 min to stabilize the luminescent signal. Finally, chemiluminescence was detected using a multimode microplate reader with a chemiluminescence detection function. The obtained data were analyzed using GraphPad Prism 7.0 software. A sigmoidal dose-survival rate curve was plotted using a non-linear regression model, and the IC50 values were calculated.
For orientation: In a reporter assay the amount or activity of a reporter protein is the signal.

Series [2] in a line: Pharmacokinetic test in mice (low dose). The class given is in vivo, Balb/c mice. As to conditions: mouse, plasma, mice; for AUC(0-t): read-out: AUClast; for half-life: read-out: T1/2 (converted). On the procedure:
The compounds of the present disclosure were administered to Balb/c mice by single intravenous injection and oral gavage, and the plasma of the mice at each time point was collected. The concentration of the compounds to be tested in BALB/C plasma was detected using the LC-MS/MS analysis method, and pharmacokinetic analysis was performed.
The mixture was vortexed, shaken, and ultrasonicated. The remaining volume of 25% sulfobutylether-β-cyclodextrin (sterilized) was added to prepare the final concentration solution or suspension.
Intravenous injection formulations will be directly administered in animal experiments without filtration. The IV drug preparation vials were disinfected in an infrared sterilization cabinet one day in advance.
Intravenous injection: Administration was performed via the tail vein. After the needle was inserted, the syringe was slowly […].
Gavage: Gavage needle and syringe of an appropriate type were selected. The gavage needle was inserted from the root of the tongue into the esophagus until it reached near the cardia of the stomach, then the drug formulation was injected, and the gavage needle was withdrawn. When disposable plastic gavage needles were used, one needle was used for each group.
At each time point, 60 µL of whole blood was collected from the submandibular vein or tail vein (except for the IV group). The blood sample was added to a pre-cooled anticoagulant blood collection tube containing anticoagulant EDTA-K2 (1 µL, 15% EDTA-K2 solution), placed on wet ice, and centrifuged (3000 g, 4 °C, 10 min) within 1 h. The plasma was immediately collected after centrifugation, transferred to an EP tube, and stored at -90 °C to -60 °C.
Plasma concentration detection: A developed LC-MS/MS method was used to detect the compounds in plasma.
The plasma concentration-time data were analyzed using a non-compartmental model in the Phoenix® WinNonlin® (Version 8.2, Pharsight, Mountain View, CA).

The subject of series [3] is MSTO-211H (NF2 wide-type). Briefly: Inhibition of cell proliferation (CellTiter-Lumi). The class given is cell-based. The settings on record: Homo sapiens, 72 h + another 72 h treatment. On the procedure: (§1) NCI-H2052 (NF2 mutant), NCI-H226 (NF2 mutant), NCI-H2452 (NF2 wide-type), NCI-H28 (NF2 wide-type), and MSTO-211H (NF2 wide-type) cells were cultured in RPMI 1640 complete media.
(§2) The normally growing cells described above were digested with a trypsin cell-digesting solution, centrifuged, counted, and then plated in a 96-well plate at a density of 1000 cells per well. Administration was performed 24 h after the cell plating. Inhibitors at different concentration gradients were added at 10 µL per well, and three replicate wells were set for each concentration point. The starting concentration was 20 µM and diluted 8 times with a 4-fold gradient. A corresponding negative control group treated with 0.1% DMSO was also set up. After 72 h of drug treatment, the cell culture plate to be tested was taken out of the incubator. The culture medium in the 96-well plate was pipetted, and 190 µL of fresh RPMI 1640 complete medium was added. Another administration was performed, and the cells were cultured for another 72 h. The 96-well plate was taken out and allowed to equilibrate at room temperature for 10 min. The medium in the 96-well plate was pipetted, and 200 µL of CellTiter-Lumi™ luminescent cell viability detection solution (mixed with a medium in a ratio of 1:1) was added. After shaking for two minutes, the mixture was reacted at room temperature for 10 min. Then, 150 µL of liquid was pipetted from the transparent 96-well plate and transferred to a white 96-well plate for chemiluminescence reading. The background value was subtracted from the value for each well to calculate the cell survival rate. Survival rate (%) = […]. Sample is the chemiluminescence of the drug-treated group, and Vehicle is the […] of the DMSO control group. A sigmoidal dose-survival rate curve was plotted using a non-linear regression model in the GraphPad Prism 7.0 software, and the IC50 values or GI50 values were calculated.

Series [4] has as its system NCI-H2452 (NF2 wide-type). Briefly: Inhibition of cell proliferation (CellTiter-Lumi). The class given is cell-based. As to conditions: Homo sapiens, 72 h + another 72 h treatment. On the procedure: as §1
as §2, with “The medium in the 96-well plate was pipetted, and 200 µL of CellTiter-Lumi™ luminescent cell viability detection solution (mixed with a medium in a ratio of 1:1) was added.” left out

The next series concerns NCI-H28 (NF2 wide-type). In words: Inhibition of cell proliferation (CellTiter-Lumi). The series is classed as cell-based. The settings on record: Homo sapiens, 72 h + another 72 h treatment. How it is done: as §1
as §2, with “The medium in the 96-well plate was pipetted, and 200 µL of CellTiter-Lumi™ luminescent cell viability detection solution (mixed with a medium in a ratio of 1:1) was added.” left out

Consider 5 compounds from patent publication EP4596561A1, “PHOSPHORUS-CONTAINING COMPOUND, PHARMACEUTICAL COMPOSITION AND USE THEREOF” (Suzhou Genhouse Bio Co., Ltd., priority 2022, dated 2024).

Each structure is given as a SMILES string. Where two headings read alike, the source gives them in different places. Some results are limits rather than exact numbers.

For the compound `CP(C)(=O)c1ccc2c(c1)c1ncccc1n2-c1ccc(C(F)(F)F)cc1` [Example 4], the IC50 in series [1] is 123 nM; in series [3], above 1250 nM; in series [4], above 5 µM; in the series with NCI-H28 (NF2 wide-type) it was above 1.25 µM. Moreover, the mean residence time MRT in series [2] (IV 2 mg/kg) came out at 6.4 h; in series [2] (PO 10 mg/kg) it was 5.3 h. For the same compound, the results for the AUC(0-t) in series [2] (IV 2 mg/kg) and in series [2] (PO 10 mg/kg) were 9.23 µM·h and 79 µM·h, respectively. The clearance in series [2] (IV 2 mg/kg, read-out: Cl (converted)) is 8.33 mL/min/kg. Moreover, the values for the half-life in series [2] (IV 2 mg/kg) and in series [2] (PO 10 mg/kg) were 378 min and 198 min, respectively. For the same compound, the bioavailability in series [2] (PO 10 mg/kg vs IV 2 mg/kg, read-out: F%) was 163%. In addition, the Cmax in series [2] (PO 10 mg/kg, read-out: Cmax) amounted to 9.36 µM.

Take `Cn1cnc(-c2cc(P(C)(C)=O)ccc2Nc2ccc(C(F)(F)F)cn2)c1` [Example 13]: the IC50 in series [1] is 344 nM; in series [3] it was above 20000 nM; in series [4], above 20 µM; with NCI-H28 (NF2 wide-type), above 5 µM.

For the compound `CP(C)(=O)c1cnc(Nc2ccc(C(F)(F)F)cc2)c(-n2cccn2)c1` [Example 18], the IC50 in series [3] is above 1250 nM; in series [4] it was above 1.25 µM; in the series on NCI-H28 (NF2 wide-type), above 20 µM.

On to `CP(C)(=O)c1ccc2c(c1)c1nccnc1n2-c1ccc(C(F)(F)F)cc1` [Example 19], for which the IC50 in series [3] is 628 nM; in series [4], above 5 µM; in the series on NCI-H28 (NF2 wide-type), above 5 µM.

As to `CP(C)(=O)c1cnc(Nc2ccc(C(F)(F)F)cc2)c(-n2cc(C(F)(F)F)cn2)c1` [Example 20], the IC50 in series [1] is 439 nM; in series [3] it was above 1250 nM; with NCI-H28 (NF2 wide-type), above 20 µM.

As a reminder, the IC50 is the concentration at which inhibition is half-maximal. Usually MRT stands for the average time that molecules of a dose stay in the body. As usually defined, the Cmax is the maximum level reached in the sampled fluid or tissue.
